Data set [1] has as its system ATM. Briefly: ATM / DNA damage checkpoint dependence of VX-680-induced G2 arrest (western blot, DNA FACS profiles). In kind it is cell-based. On the procedure:
For western blotting, cell extracts were prepared using NP-40 lysis buffer (50 mM Tris-HCl (pH 8.0), 150 mM NaCl, 1% NP-40, 5 mM EDTA supplemented with protease and phosphatase inhibitor cocktails (Sigma).
(In western blotting, separated proteins are transferred to a membrane and probed.)

The subject of data set [2] is A549 cells. Put plainly: Cell cycle / BrdU analysis of A549 cells pretreated with nutlin-3 before VX-680. The format is cell-based. The procedure: Cells were treated with 200 nM VX-680 for 24 h and incubated with […] BrdU for 30 min. […] BrdU-positive cells in untreated control sample (upper left panel) and BrdU-positive cells that are […] DNA (endoreduplicating cells) (upper right panel) are highlighted in the boxes and the percentages over the total cell population are indicated.
(b) is a schematic diagram showing the timing and order of addition of drugs. At 48 h after VX-680 treatment, cells were washed in drug-free media and incubated in drug-free media for another 48, 96 or 120 h. Cell cycle distribution was analyzed by flow cytometry. Also shown are the DNA profiles obtained using the drug treatment protocol depicted in (a).
Cells were incubated in DMEM containing […] BrdU for 30 min in a 37° C./5% CO2 incubator. Detection of BrdU-labeled cells was performed using the In Situ Cell Proliferation Kit from Roche. In brief, cells were harvested and fixed using a 70% ethanol/50 mM Glycine (pH 2.0) on ice. Cells were pelleted and resuspended in the HCl-denaturation solution at room temperature for 20 min. Cells were then pelleted and 50 μl anti-BrdU-FLUOS antibody was added to the cells and incubated for 45 min at 37° C. in a humidified chamber. For staining of total DNA, 7-AAD was added to the cells, followed by incubation at room temperature for 10 min. Cells were analyzed immediately using flow cytometry (BD LSR II System).

The test system of data set [3] is p53-deficient HCT116. Briefly: Colony survival assay, p53-deficient HCT116. The format is cell-based. The note with it: p53-deficient HCT116, nutlin-3 pretreatment before VX-680. On the procedure: (§1) Colonies were counted 2 weeks after recovery in drug-free media. Cells were fixed with glutaraldehyde and stained with crystal violet. Plates are scanned and colonies were counted with an automated image analyzer. Three independent experiments were performed for each cell line.
(§2) Each data point represents the mean±S.D.
(§3) A total of 1000 cells were plated on each 10 cm plate and allowed to adhere overnight. […] After 48 h, cells were washed and recovered in fresh media for 12 days. Cells were then fixed in 6% glutaraldehyde (Sigma) and stained with crystal violet. Colonies were counted using GelCount™ (Oxford Optronix, Oxford, England). Each condition was carried out in triplicate.

In data set [4] the test system is HCT116p53+/+ (green) and HCT116p53−/− (red) cells. Briefly: Co-culture of HCT116p53+/+ GFP and HCT116p53−/− RFP cells. In kind it is cell-based. The note with it: mixed population pretreated with nutlin-3 then VX-680, 5 days after drugs removal. From the text:
(e) is a schematic illustration of fluorescent microscopy images of HCT116 p53+/+ and p53−/− cells that were transduced with recombinant lentiviruses carrying GFP and RFP genes, respectively. The cells were selected in zeocin for 2 weeks to achieve the stable cell lines, HCT116 p53+/+GFP and HCT116 p53−/− RFP. Equal numbers of HCT116 p53+/+GFP and p53−/− RFP were mixed and seeded to achieve 30% growth confluency. […] Cells were then washed twice with drug-free media and allowed to recover for 5 days in fresh complete media. Microscopy images were taken with Deltavision (Axio). […] Insets 1 and 2 show higher magnification of the images on the left.
We further studied the responses of p53 wild-type and p53-deficient cells in co-culture system, in which both cell types were cultured together for the duration of the experiment. HCT116p53+/+ and the HCT116p53−/− cells were distinguished using green fluorescent protein (GFP) and red fluorescent protein (RFP) fluorescent markers. Equal numbers of HCT116p53+/+ (green) and HCT116p53−/− (red) cells were mixed and plated in 10 cm plates, before exposure to a similar drug dosage regimen as described in FIG. 6c.

The test system of data set [5] is HCT116 p53+/+ cells. Put plainly: Cell cycle analysis of HCT116 p53+/+ cells (nutlin-3, VX-680). In kind it is cell-based. The note with it: HCT116p53+/+. The procedure:
(a) is a comparison of the DNA profiles of P53+/+ and p53−/− cells after treatment with VX-680. HCT116 p53+/+ and p53−/− cells were incubated with 200 nM VX-680 and cells were harvested at the indicated time points for analysis of cell cycle distribution.
(b) is a comparison of the DNA profiles of p53+/+ and p53−/− cells with pre-treatment of Nutlin before incubation with VX-680.

Data set [6] has as its system HCT116p53+/+ cells. Put plainly: Colony survival assay, HCT116p53+/+. In kind it is cell-based. Particulars: pretreated with nutlin-3, versus VX-680 alone. On the procedure: as §1, §2, §3
The subject of data set [7] is MDA-MB 468 and HCT116 p53−/−. Briefly: Annexin V apoptosis assay, p53-compromised cell lines. In kind it is cell-based. The note with it: p53-compromised cells pretreated with nutlin-3 before VX-680.
Method: Cells were then harvested and stained for annexin V to detect apoptotic cells.
For analysis of apoptosis, cells were harvested without fixation. Apoptosis was evaluated using the annexin V (fluorescein isothiocyanate (FITC))-propidium iodide binding assay (Roche, Indianapolis, Ind., USA). The extent of apoptosis was quantified as a percentage of annexin V-positive cells over the total cell population. Flow cytometric analysis was performed on a BD LSR II System (BD Biosciences, Stockholm, Sweden). Data were analyzed using FlowJo software and ModFit LT (Verity Software House, Topsham, Me., USA).
Data set [8] deals with A549 cells. Put plainly: Micronuclei formation and γH2AX staining (immunofluorescence microscopy) in A549 cells. The format is cell-based. The note with it: A549; nutlin-3 only, or nutlin-3 16 h before VX-680 48 h. The procedure:
Cells were fixed and stained for γH2AX (green) as described in Materials and Methods in the Examples. Nuclei were counterstained with DAPI blue. Visualization of nuclei and γH2AX positive foci was done by fluorescence microscopy.
Indirect immunofluorescence was carried out as described previously.^14 g-H2AX (Novus Biologicals, Littleton, Colo., USA, NB 100-383) and anti-rabbit Alexa 488-coupled secondary antibody (Molecular Probes, Carlsbad, Calif., USA) were used. Nuclei were counterstained with Hoechst 33342 (Molecular Probes). Immunofluorescence was visualized using Axiolmager Z1 (Zeiss, Gottingen, Germany).

Data set [9] deals with A549 cells. Put plainly: Colony survival assay, A549. More on the design: enhancement of the fraction of surviving colonies: dose or concentration left out as unconfirmed. In kind it is cell-based. On the procedure: as §1, §2, §3
Data set [10] deals with human keratinocytes. Particulars: for tetraploidy / endoreduplication after nutlin pretreatment: keratinocytes pretreated with nutlin-3 16 h, then VX-680 (200 nM) 48 h.
Method: Primary human keratinocytes were purchased from Invitrogen and cultured in defined keratinocyte serum-free media (Invitrogen). All cell lines were cultured in a CO2 incubator (5% CO2 and 21% O2) at 37° C.
For analysis of cell cycle distribution, cells were harvested and fixed in 70% ethanol/PBS solution. Cells were stained in propidium-iodide containing solution (25 μg/ml propidium iodide supplemented with 1 mg/ml RNase A, in PBS (pH 7.8); Sigma Chemical, St Louis, Mo., USA) for 15 min at room temperature.

“Also recorded” adds a separate entry of the source. Like-named read-outs stand apart in the source and are kept apart here.

With `O=c1cc(-c2cccc3c2Sc2ccccc2S3)oc(N2CCOCC2)c1` [KU55933], the “γH2AX and ATM-S1981 phosphorylation in response to doxorubicin” value in data set [1] (KU55933 with 1 μM doxorubicin) is reported as “abrogates the observed phosphorylation in a dose-dependent manner; also recorded: clearly reduced”. In addition, the “effect on VX-680-induced G2 arrest” value in data set [1] (pre-treatment with KU55933 before VX-680) is “does not abrogate”.
With `COc1cccc2c1C(=O)c1c(O)c3c(c(O)c1C2=O)C[C@@](O)(C(=O)CO)C[C@@H]3O[C@H]1C[C@H](N)[C@H](O)[C@H](C)O1` [doxorubicin], in data set [1] (1 μM doxorubicin), the “phospho-S1981 ATM, phospho-H2AX, phospho-S15 p53” value is reported as “accumulation”.
With `COc1ccc(C2=N[C@@H](c3ccc(Cl)cc3)[C@@H](c3ccc(Cl)cc3)N2C(=O)N2CCNC(=O)C2)c(OC(C)C)c1` [nutlin-3], the “cell cycle arrest of nutlin-3-pretreated cells” value in data set [2] (A549, nutlin-3 (5 µM) before VX-680 treatment, 48 h VX-680, confirmed by BrdU assay) is “arrested cells even after 48 h of VX-680 exposure”; in data set [2] (A549, nutlin-3 (5 μM) followed by VX-680 (200 nM)), “remained arrested at G1”. Further, the “DNA profile after recovery in drug-free media” value in data set [2] (A549, nutlin-3 pretreatment then VX-680, recovered in drug-free media) is “normal diploid DNA profile”. The colony survival rate entry in data set [3] was “did not affect”. In addition, the “number of HCT116p53+/+ (green) cells versus HCT116p53−/− (red) cells” value in data set [4] is “far more than”. For the same molecule, in data set [5], the “cell cycle arrest by nutlin” value is “induced an arrest”. Besides, in data set [5] (nutlin-3 16 h then VX-680 (200 nM) and nutlin-3 48 h), the “protection from VX-680-induced endoreduplication by nutlin pretreatment” value was “protects”. The “better survival (colony formation)” value in data set [6] is “up to 15 fold”. Further, in [7], the “degree of apoptosis with nutlin-3 pretreatment” value was “no significant difference”. For the same molecule, in data set [8], the “frequency of micronuclei and γH2AX staining” value is “low frequency”. Also, in data set [9] (A549, pretreated with for 16 h before VX-680 48 h, versus VX-680 alone), the “enhancement of the fraction of surviving colonies” value is listed as “up to 20 fold”. The “number of surviving colonies” value in data set [9] (nutlin alone) is “moderately decreases”. Also, the cellular viability result in [10] is “high cellular viability”. Further, the “tetraploidy / endoreduplication after nutlin pretreatment” value in data set [10] (listed as Nutlin) is on record as “did not show significant tetraploidy”; in [10] (listed as Nutlin-3) it was “protects primary human keratinocytes from endoreduplication”.

(Values after patent publication US20130344140A1, “NOVEL PHARMACEUTICAL COMBINATIONS AND METHODS FOR TREATING CANCER” (Agency for Science, Technology and Research, priority 2011, published 2013).)
